Assay results published in PMC5362113 (Journal of medicinal chemistry, 2016).
Values joined by “and” are separate entries in the source; they are usually repeats but may differ in a detail not shown here. Equal entries are not always repeated. Each block holds one compound with its values, some of them ahead of it.

Key:
[1] = In vitro liver microsome assay, mouse; assay type: in vitro ADME; settings: pooled liver microsomes
[2] = In vitro liver microsome assay, human; assay type: in vitro ADME; settings: pooled liver microsomes
[3] = system: T. b. brucei (strain BF427); assay: T. brucei growth inhibition assay; assay type: cell-based; settings: T. b. brucei BF427, 48 h, Alamar Blue
[4] = Brain time-course experiment of compound 57 after oral dosing; assay type: in vivo; settings: mice, single oral dose 50 mg/kg
[5] = Efficacy PK in acute model; assay type: in vivo, mice; settings: 50 mg/kg po b.i.d., prior to dose 7 (predose)
[6] = Efficacy PK in chronic model; assay type: in vivo, mice; settings: 50 mg/kg po b.i.d., prior to dose 15 (predose)
[7] = Brain:plasma compound concentration measurements in mice, 1 h post ip dose; assay type: in vivo; settings: single ip dose 5 mg/kg, 1 h postdose
[8] = Mouse oral pharmacokinetics; assay type: in vivo; settings: mice, 50 mg/kg oral, Tween 80/EtOH/DMSO vehicle
[9] = system: CRL-8155 (human lymphoblasts); assay: Cytotoxicity in mammalian cells, CRL-8155; settings: 48 h, growth inhibition by 50%
[10] = system: HepG2 cells (human hepatocellular carcinoma); assay: Cytotoxicity in mammalian cells, HepG2; assay type: cell-based; settings: human hepatocytes, 48 h, growth inhibition by 50%

SMILES: O=C(Nc1ccc2oc(-c3ccccc3)nc2c1)c1ccccc1 [Compound 30]
half-life at 1.5 μM [1]: 10 to 20 min
half-life at 1.5 μM [2]: ≥ 60 min

SMILES: O=C(Nc1ccc2sc(-c3cccc(F)c3)nc2c1)N1CCN(C(=O)Nc2ccc3sc(-c4cccc(F)c4)nc3c2)CC1 [Compound 49]
T. brucei EC50 [3]: No activity was detected

SMILES: O=C(Nc1ccc2sc(-c3ccc(F)c(F)c3)nc2c1)N1CC[C@H](F)C1 [Compound 57, (S)-2-(3,4-Difluorophenyl)-5-(3-fluoro-N-pyrrolidylamido)-benzothiazole]
Cmax, brain [4]: 54.84 ± 4.64 µM
[compd]brain ([4]; 24 h): submicromolar
[compd]plasma ([4]; 24 h, LLQ is 0.010 μM, 50 mg/kg): undetectable
average plasma level [5]: 9.1 ± 7.6 µM
average plasma level [6]: 15.8 ± 8.7 µM
[compd]brain [7]: 9.07 µM and 9.07 ± 3.973 µM
percent of Cmax remaining at the 24 h time point [8]: Less than 1%
CRL-8155 EC50 [9]: no detectable toxicity
HepG2 EC50 [10]: no detectable toxicity

The next lines start with the values.

half-life at 1.5 μM [1]: 10 to 20 min
half-life at 1.5 μM [2]: ≥ 60 min
SMILES: O=C(Nc1ccc2oc(-c3ccccc3)nc2c1)N1CCCCC1 [Compound 32]

half-life at 1.5 μM [1]: > 20 min
SMILES: O=C(Nc1ccc2sc(-c3ccccc3)nc2c1)N1CCCC1 [Compound 38]

half-life at 1.5 μM [1]: > 20 min
SMILES: O=C(Nc1ccc2sc(-c3ccccc3)nc2c1)N1CCCCC1 [Compound 40]

percent of Cmax remaining at the 24 h time point [8]: 34%
percent of Cmax remaining at the 32 h time point [8]: > 17%
SMILES: O=C(Nc1ccc2sc(-c3ccc(F)c(F)c3)nc2c1)N1C[C@@H](F)[C@H](F)C1 [Compound 59]
